Reference: patent US6846489B1, “Vaccines containing a saponin and a sterol” (priority 1995, dated 2005)

Legend:
erythrocytes = test: Lytic activity of QS21 on erythrocytes (hemolysis); assay type: cell-based; conditions: for lytic activity: expressed as μg QS21 equivalent for the same hemolysis, 5 μg QS21 (or digitonin)
Method: When QS21 is added to erythrocytes, they lyse them releasing hemoglobin. This lytic activity can also be measured using liposomes which contain cholesterol in their membrane and an entrapped fluorescent dye, carboxyfluorescein—as the liposomes are lysed the dye is released which can be monitored by fluorescence spectroscopy.
If the QS21 first associates with cholesterol in liposomes it is no longer lyric towards cells or other liposomes.
In the presence of phospholipids the cholesterol resides within the phospholipid bilayer which can form a stable suspension of vesicles called liposomes. To avoid the requirement to add phospholipids a soluble derivative was tried.

[1] = Lytic activity of QS21 on fluorescent liposomes (carboxyfluorescein release); conditions: fluorescent liposomes without cholesterol in their membrane
Method: When QS21 is added to erythrocytes, they lyse them releasing hemoglobin. […]
The same holds true using fluorescent liposomes to measure the lytic activity.

[2] = Base-mediated hydrolysis of QS21 monitored by reverse-phase HPLC; assay type: physicochemical; conditions: pH 9, 37° C.
Text: This hydrolysis can be monitored by measuring the decrease in the peak corresponding to QS21 on reverse-phase HPLC.

[3] = assay type: in vivo, rabbits
Text: 1.6 Reactogenicity intra-muscularly in rabbits
Since the CPK increase is a measure of muscle damage this indicates decreased muscle damage and is confirmed by the histopathology.

[4] = Binding of the liposome-QS21 complex to alum; assay type: physicochemical; conditions: incubated with alum (Al(OH)3) in PBS
Method: QS21 was incubated with neutral liposomes containing excess cholesterol as well as radioactive cholesterol and then incubated with alum (Al(OH)3) in PBS.

HSV gD = conditions: antigen gD (5 μg)

Compound | reduction in the lytic activity of QS21 (erythrocytes; 2000 fold excess (w/w) over QS21) | lytic activity (erythrocytes) [µg] | lytic activity on erythrocytes (erythrocytes; QS21 incubated with liposomes containing cholesterol before adding to erythrocytes, 1:1 ratio cholesterol to QS21) | lysis of fluorescent liposomes [1] | hydrolysis of the QS21 ([2]; 16 hours, liposomes containing cholesterol added 2:1 (chol:QS21 w/w)) | QS21 degraded ([2]; 16 hours, liposomes containing cholesterol, ratio 1:1) [%] | QS21 hydrolysed ([2]; within 16 hours, QS21 alone) [%] | toxicity in rabbits (by CPK) ([3]; QS21 associated with cholesterol-containing liposomes, Chol:QS21=6:1) | CPK Day0 Mean ([3]; mean of 5 rabbits) [U.I./L] | CPK Day1 Mean ([3]; mean of 5 rabbits) [U.I./L] | CPK Day3 Mean ([3]; mean, value in parentheses left out) [U.I./L] | binding to alum in PBS [4] | IgG1 %, isotypes 7 days post II (HSV gD) [%] | IgG1, isotypes 7 days post II (HSV gD) [µg/mL] | IgG2a %, isotypes 7 days post II (HSV gD) [%] | IgG2a, isotypes 7 days post II (HSV gD) [µg/mL] | IgG2b %, isotypes 7 days post II (HSV gD) [%] | IgG2b, isotypes 7 days post II (HSV gD) [µg/mL] | IgG 7 post II (GMT) (HSV gD) | IgG 14 post II (GMT) (HSV gD)
Polyoxyethanyl-cholesterol sebacate | no reduction | – | – | – | – | – | – | – | – | – | – | – | – | – | – | – | – | – | – | –
C[C@@H]1CC[C@@]2(OC1)O[C@H]1[C@@H](O)[C@H]3[C@@H]4CC[C@H]5C[C@@H](O[C@@H]6O[C@H](CO)[C@H](O[C@@H]7O[C@H](CO)[C@@H](O)[C@H](O[C@@H]8OC[C@@H](O)[C@H](O)[C@H]8O)[C@H]7O[C@@H]7O[C@H](CO)[C@H](O)[C@H](O[C@@H]8O[C@H](CO)[C@@H](O)[C@H](O)[C@H]8O)[C@H]7O)[C@H](O)[C@H]6O)[C@H](O)C[C@]5(C)[C@H]4CC[C@]3(C)[C@H]1[C@@H]2C [digitonin] | – | 5 | – | – | – | – | – | – | – | – | – | – | – | – | – | – | – | – | – | –
QS21 | – | 5 | no lytic activity is detected | no lysis | no hydrolysis | 10 | 90 | non-toxic | 1369 | 6261 | 1212 | neither neutral liposomes nor QS21 bind to alum | 66 | 156 | 28 | 67 | 6 | 14 | 3468 | 4132
